Results reported in patent US20240254138A1, “TRICYCLIC PYRIMIDINES AS CYCLIN-DEPENDENT KINASE 7 (CDK7) INHIBITORS” (JANSSEN PHARMACEUTICA NV, priority 2021, published 2024).
Where two headings read alike, the source gives them in different places.

Experiments:
[1] = tested on: RNA Polymerase II Serine 5 phosphorylation (Rpb1 CTD, downstream substrate of CDK7) in A549 cells; test: Imaging-based cellular RNA PolII Ser5 phosphorylation assay in A549 cells; format: cell-based, human; conditions: wild-type CDK7, RNA PolII Ser5 phosphorylation, averaged over all measurements; for IC50: Homo sapiens, A549, A549 cells, read-out: CDK7_A549 Wild-type CDK7 (pIC50) (converted); for CDK7_A549 Wild-type CDK7 (pIC50): A549 cells
Outline: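 A549 cells, seeded 1000/well in DMEM with 1% FBS and cultured 20 h, were treated with compound for 3 h at 37 °C. Ser5-phospho-Rpb1 CTD detected by immunofluorescence imaging after fixation and methanol permeabilization; IC50 from curve fit normalized to DMSO and 10 μM reference-compound controls.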

[2] = target: CDK7/cyclinH/MAT1 trimeric complex (Homo sapiens, UniProt P50613); test: In vitro CDK7 assay, potency of irreversible covalent inhibitors (kinact/KI), coupled PK/LDH ADP readout at 340 nm; conditions: for Ki: CDK7 (20 nM enz.) (KI, μM); for Ki / CDK7 (20 nM enz.) (kinact, s^−1) / CDK7 (20 nM enz.) (kinact/KI, M^−1*s^−1): 20 nM enzyme; for kinact: read-out: CDK7 (20 nM enz.) (kinact, s^−1), 20 nM enzyme
[3] = tested on: RNA Polymerase II Serine 5 phosphorylation in A549 cells overexpressing CDK7-mutant (C312S); test: Imaging-based cellular RNA PolII Ser5 phosphorylation assay in A549 cells overexpressing CDK7-mutant (C312S); format: cell-based, human; conditions: RNA PolII Ser5 phosphorylation, averaged over all measurements; for IC50: Homo sapiens, A549, A549 cells overexpressing CDK7-mutant (C312S), read-out: CDK7_A549 mutant hCDK7(pIC50) (converted); for CDK7_A549 mutant hCDK7(pIC50): A549 cells overexpressing CDK7-mutant (C312S)
Outline: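 A549 cells overexpressing CDK7 C312S (with endogenous wild-type CDK7) were treated with compound for 3 h at 37 °C in 1% FBS medium. Phospho-Rpb1 CTD Ser5 was immunostained after fixation and imaged. IC50 came from curve fit of % control, normalised to DMSO and 10 μM reference-compound controls.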

[4] = read-out: CDK7 (20 nM enz.) (kobs/[I], M^−1*s^−1), 20 nM enzyme
[5] = read-out: CDK7 (20 nM enz.) (kinact/KI, M^−1*s^−1), 20 nM enzyme

CDK7/cyclinH/MAT1 trimeric complex, sequence (P50613 whole entry): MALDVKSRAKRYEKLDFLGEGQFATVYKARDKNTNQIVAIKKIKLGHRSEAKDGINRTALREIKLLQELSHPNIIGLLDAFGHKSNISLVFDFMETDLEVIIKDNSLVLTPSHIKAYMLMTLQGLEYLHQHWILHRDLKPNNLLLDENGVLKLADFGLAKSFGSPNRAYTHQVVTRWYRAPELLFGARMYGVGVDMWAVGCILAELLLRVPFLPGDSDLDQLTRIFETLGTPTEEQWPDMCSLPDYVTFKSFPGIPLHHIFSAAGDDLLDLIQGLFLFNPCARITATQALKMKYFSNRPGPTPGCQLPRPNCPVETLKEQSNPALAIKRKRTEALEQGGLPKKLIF
CDK7/cyclinH/MAT1 trimeric complex, sequence (P51946 whole entry partner): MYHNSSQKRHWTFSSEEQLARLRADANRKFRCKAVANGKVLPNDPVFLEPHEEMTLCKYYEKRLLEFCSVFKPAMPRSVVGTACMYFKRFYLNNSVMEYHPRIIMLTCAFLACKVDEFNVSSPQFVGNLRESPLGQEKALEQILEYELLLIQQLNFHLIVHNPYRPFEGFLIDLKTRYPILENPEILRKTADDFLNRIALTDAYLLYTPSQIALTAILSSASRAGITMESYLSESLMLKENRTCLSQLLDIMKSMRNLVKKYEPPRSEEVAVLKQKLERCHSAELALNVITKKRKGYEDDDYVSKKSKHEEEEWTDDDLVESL
CDK7/cyclinH/MAT1 trimeric complex, sequence (P51948 whole entry partner): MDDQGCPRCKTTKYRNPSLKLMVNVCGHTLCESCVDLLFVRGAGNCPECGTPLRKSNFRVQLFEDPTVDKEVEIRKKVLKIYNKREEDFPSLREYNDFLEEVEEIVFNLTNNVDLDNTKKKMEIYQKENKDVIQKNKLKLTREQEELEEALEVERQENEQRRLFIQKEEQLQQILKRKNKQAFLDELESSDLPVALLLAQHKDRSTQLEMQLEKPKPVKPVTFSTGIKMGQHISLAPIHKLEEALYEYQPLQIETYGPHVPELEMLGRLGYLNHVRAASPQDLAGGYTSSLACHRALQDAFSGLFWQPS

IC50 [1] [µM] | kinact/KI [2, 4] [M⁻¹ s⁻¹] | IC50 [3] [µM] | Ki [2] [µM] | kinact [2] [s⁻¹] | kinact/KI [2, 5] [M⁻¹ s⁻¹] | CDK7_A549 Wild-type CDK7 (pIC50) [1] | CDK7 (20 nM enz.) (kinact, s^−1) [2] [s⁻¹] | CDK7 (20 nM enz.) (kinact/KI, M^−1*s^−1) [2] [M⁻¹ s⁻¹] | CDK7_A549 mutant hCDK7(pIC50) [3] | Compound
0.178 |  | ~8.32 | 0.0688 | 5.48e-05 | 796 |  |  |  |  | C=CC(=O)N1CC(N2CC(c3cc4c(cn3)O[C@H](C)c3c(-c5cnn(C)c5)ccnc3N4)C2)C1 (single isomer, unassigned) [Compound 295]
0.024 | 2790 | > 10 |  |  |  |  |  |  |  | COC(=O)/C=C/C(=O)N1CC[C@@H](N2CCC(c3cc4c(c(C)n3)OCc3c(-c5cnn(C)c5)ccnc3N4)CC2)C1 (single isomer, unassigned) [Compound 301]
0.129 |  | > 10 | 0.111 | 4.09e-05 | 369 |  |  |  |  | CC#CC(=O)N1CC[C@H](N2CCC(c3cc4c(c(C)n3)OCc3c(-c5cnn(C)c5)ccnc3N4)CC2)C1 (single isomer, unassigned) [Compound 304]
0.447 |  | > 10 | 0.434 | 1.51e-05 | 34.8 |  |  |  |  | CC#CC(=O)N1CC(N2CC[C@@H](c3cc4c(c(C)n3)O[C@H](C)c3c(N5CCOCC5)ccnc3N4)C2)C1 (single isomer, unassigned) [Compound 308]
0.129 |  | > 10 | 0.277 | 5.45e-05 | 197 |  |  |  |  | CC#CC(=O)N1CC[C@H](N2CCC(c3cc4c(c(C)n3)OCc3c(N5CCOCC5)ccnc3N4)CC2)C1 (single isomer, unassigned) [Compound 309]
0.0776 |  | > 10 | 0.047 | 6.15e-05 | 1310 |  |  |  |  | C=CC(=O)N1CC(N2CC[C@@H](c3cc4c(c(C)n3)O[C@H](C)c3c(N5CCOCC5)ccnc3N4)C2)C1 (single isomer, unassigned) [Compound 319]
0.0832 |  | 7.94 | 0.0217 | 6.41e-05 | 2950 |  |  |  |  | C=CC(=O)N1CC[C@@H](N2CC(c3cc4c(c(C5CC5)n3)OCc3c(N5CCOCC5)ccnc3N4)C2)C1 (single isomer, unassigned) [Compound 323]
0.0891 | 939 | 7.76 |  |  |  |  |  |  |  | C=CC(=O)N1CC[C@H](N2CC(c3cc4c(c(C5CC5)n3)OCc3c(N5CCOCC5)ccnc3N4)C2)C1 (single isomer, unassigned) [Compound 326]
0.0794 |  | ~10 | 0.0302 | 4.16e-05 | 1380 |  |  |  |  | C=CC(=O)N1CC[C@@H](N2CC(c3cc(C)c4c(c3)Nc3nccc(N5CCOCC5)c3CO4)C2)C1 (single isomer, unassigned) [Compound 327]
0.224 |  | > 10 | 0.472 | 2.77e-05 | 58.8 |  |  |  |  | CC#CC(=O)N1CC(N2CC[C@@H](c3cc4c(c(C)n3)O[C@@H](C)c3c(N5CCOCC5)ccnc3N4)C2)C1 (single isomer, unassigned) [Compound 328]
7.59 |  | > 10 | 4.85 | 2.19e-05 | 4.51 |  |  |  |  | Cc1nc(C2CCN([C@H]3CCN(C(=O)/C=C/C(=O)O)C3)CC2)cc2c1OCc1c(-c3cnn(C)c3)ccnc1N2 (single isomer, unassigned) [Compound 332]
0.0871 |  | > 10 | 0.131 | 3.88e-05 | 296 |  |  |  |  | CC#CC(=O)N1CC(N2CCC(c3cc4c(c(C)n3)O[C@H](C)c3c(N5CCOCC5)ccnc3N4)CC2)C1 (single isomer, unassigned) [Compound 345]
0.0151 | 2670 | 4.57 |  |  |  |  |  |  |  | C=CC(=O)N1CC(N2CCC(c3cc(C#N)c4c(c3)Nc3nccc(N5CCOCC5)c3[C@@H](C)O4)CC2)C1 (single isomer, unassigned) [Compound 354]
0.0603 |  | ~10 | 0.0291 | 5.06e-05 | 1740 |  |  |  |  | C=CC(=O)N1CC[C@H](N2CC(c3cc(C)c4c(c3)Nc3nccc(-c5cnn(C)c5)c3CO4)C2)C1 (single isomer, unassigned) [Compound 361]
0.0589 |  | 10 | 0.0325 | 6.59e-05 | 2030 |  |  |  |  | C=CC(=O)N1CC[C@@H](N2CC(c3cc(C)c4c(c3)Nc3nccc(-c5cnn(C)c5)c3CO4)C2)C1 (single isomer, unassigned) [Compound 362]
0.0437 |  | > 10 | 0.046 | 4.07e-05 | 885 |  |  |  |  | C=C(C(=O)N1CC[C@@H](N2CCC(c3cc4c(c(C)n3)OCc3c(-c5cnn(C)c5)ccnc3N4)CC2)C1)n1cccn1 (single isomer, unassigned) [Compound 365]

The remaining lines, values behind:

Compound | IC50 [1] [µM] | kinact/KI [2, 4] [M⁻¹ s⁻¹] | IC50 [3] [µM] | Ki [2] [µM] | kinact [2] [s⁻¹] | kinact/KI [2, 5] [M⁻¹ s⁻¹] | CDK7_A549 Wild-type CDK7 (pIC50) [1] | CDK7 (20 nM enz.) (kinact, s^−1) [2] [s⁻¹] | CDK7 (20 nM enz.) (kinact/KI, M^−1*s^−1) [2] [M⁻¹ s⁻¹] | CDK7_A549 mutant hCDK7(pIC50) [3]
C=CC(=O)N1CC(N2CC(c3cc(C#N)c4c(c3)Nc3nccc(C5CCOCC5)c3[C@H](C)O4)C2)C1 (single isomer, unassigned) [Compound 291] | 1.23 | 26.5 | > 10 |  |  |  |  |  |  | 
C=CC(=O)N1CC(N2CC(c3cc(C#N)c4c(c3)Nc3nccc(C5CCOCC5)c3[C@@H](C)O4)C2)C1 (single isomer, unassigned) [Compound 292] | 0.0562 | 802 | 8.32 |  |  |  |  |  |  | 
CC#CC(=O)N1CC[C@@H](N2CC(c3cc(C)c4c(c3)Nc3nccc(C5CCOCC5)c3CO4)C2)C1 (single isomer, unassigned) [Compound 296] | 0.224 |  | > 10 | 0.067 | 3.52e-05 | 526 |  |  |  | 
COC(=O)/C=C/C(=O)N1CC[C@H](N2CCC(c3cc4c(c(C)n3)OCc3c(-c5cnn(C)c5)ccnc3N4)CC2)C1 (single isomer, unassigned) [Compound 297] | ~0.0234 | 1240 | > 10 |  |  |  |  |  |  | 
CC#CC(=O)N1CC[C@@H](N2CCC(c3cc4c(c(C)n3)OCc3c(-c5cnn(C)c5)ccnc3N4)CC2)C1 (single isomer, unassigned) [Compound 299] | 0.0871 |  | > 10 | 0.0959 | 5.9e-05 | 615 |  |  |  | 
CC#CC(=O)N1CC[C@H](N2CC(c3cc(C)c4c(c3)Nc3nccc(C5CCOCC5)c3CO4)C2)C1 (single isomer, unassigned) [Compound 305] | 0.24 |  | > 10 | 0.0839 | 2.97e-05 | 354 |  |  |  | 
CC#CC(=O)N1CC[C@@H](N2CCC(c3cc4c(c(C)n3)OCc3c(N5CCOCC5)ccnc3N4)CC2)C1 (single isomer, unassigned) [Compound 310] | 0.0759 |  | > 10 | 0.115 | 6.29e-05 | 547 |  |  |  | 
C=CC(=O)N1CC[C@H](N2CC(c3cc(C)c4c(c3)Nc3nccc(N5CCOCC5)c3CO4)C2)C1 (single isomer, unassigned) [Compound 329] | 0.0794 |  | > 10 | 0.0243 | 3.81e-05 | 1570 |  |  |  | 
Cc1nc(C2CCN([C@@H]3CCN(C(=O)/C=C/C(=O)O)C3)CC2)cc2c1OCc1c(-c3cnn(C)c3)ccnc1N2 (single isomer, unassigned) [Compound 330] | 7.24 |  | > 10 | 4.58 | 8.82e-05 | 19.2 |  |  |  | 
C=CC(=O)N1CC(N2CC(c3cc4c(c(C)n3)O[C@H](C)c3c(N5CCOCC5)ccnc3N4)C2)C1 (single isomer, unassigned) [Compound 343] |  |  |  | 0.0503 |  |  | 7.15 | 5.902e-05 | 1172.91 | <5
CC#CC(=O)N1CC(N2CCC(c3cc4c(c(C)n3)O[C@@H](C)c3c(N5CCOCC5)ccnc3N4)CC2)C1 (single isomer, unassigned) [Compound 344] | 3.98 |  | > 10 | 17.1 | 5.4e-05 | 3.15 |  |  |  | 
CC#CC(=O)N1CC(N2CC(c3cc4c(c(C)n3)O[C@H](C)c3c(N5CCOCC5)ccnc3N4)C2)C1 (single isomer, unassigned) [Compound 355] | 0.195 |  | > 10 | 0.211 | 3.51e-05 | 166 |  |  |  | 
C=CC(=O)N1CC[C@@H](N2CCC(c3cc4c(c(C)n3)OCc3c(N5CCOCC5)ccnc3N4)CC2)C1 (single isomer, unassigned) [Compound 363] |  |  |  | 0.0272 |  |  | 7.52 | 5.097e-05 | 1874.15 | <5
CC#CC(=O)N1CC(N2CCC(c3cc4c(c(C)n3)O[C@H](C)c3c(N5CCOCC5)ccnc3N4)CC2)C1 (single isomer, unassigned) [Compound 370] |  |  | > 10 | 0.112 | 2.32e-05 |  | 7.19 |  | 206.483 | 
